According to the supplement of paper PMC10307832:

Legend:
Test in all cases: relative viability (nuclei count vs DMSO), 5 days (fraction); higher = more cells survive
[1] = system: EPLC-272H
How it was run: (§1)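 Medians of duplicate plates are given as relative viability. That measure is the nuclei count in treated wells divided by the count in vehicle wells. Counts were taken on 4× images of lung cancer cell lines in 1536-well plates, 5 days after pin-tool dosing the day after seeding with one drug alone or a fixed anchor-drug dose plus five library-drug doses (not always all listed) in √10 steps.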

[2] = system: H3255
How it was run: as §1

[3] = system: HARA
How it was run: as §1

[4] = system: LC-2-ad
How it was run: as §1

[5] = system: LOU-NH91
How it was run: as §1

[6] = system: NCI-H1650
How it was run: as §1

[7] = system: NCI-H1651
How it was run: as §1

[8] = system: NCI-H1975
How it was run: as §1

[9] = system: NCI-H2009
How it was run: as §1

[10] = system: NCI-H2023
How it was run: as §1

[11] = system: NCI-H2085
How it was run: as §1

[12] = system: NCI-H2087
How it was run: as §1

[13] = system: NCI-H2170
How it was run: as §1

[14] = system: NCI-H2228
How it was run: as §1

[15] = system: NCI-H23
How it was run: as §1

[16] = system: NCI-H441
How it was run: as §1

[17] = system: NCI-H650
How it was run: as §1

[18] = system: NCI-H727
How it was run: as §1

[19] = system: NCI-H838
How it was run: as §1

[20] = system: PC-3 [JPC-3]
How it was run: as §1

[21] = system: SW 1573
How it was run: as §1

[22] = system: UMC-11
How it was run: as §1

CCNC(=O)c1noc(-c2cc(C(C)C)c(O)cc2O)c1-c1ccc(CN2CCOCC2)cc1 [Luminespib] + CS(=O)(=O)N1CCN(Cc2cc3nc(-c4cccc5[nH]ncc45)nc(N4CCOCC4)c3s2)CC1 [Pictilisib] (partner 1 µM)
relative viability ([1]; first compound 0.006325 µM): 0.267
relative viability ([1]; first compound 0.02 µM): 0.254
relative viability ([1]; first compound 0.06325 µM): 0.197
relative viability ([1]; first compound 0.2 µM): 0.148
relative viability ([2]; first compound 0.002 µM): 0.497
relative viability ([2]; first compound 0.006325 µM): 0.474
relative viability ([2]; first compound 0.02 µM): 0.31
relative viability ([2]; first compound 0.06325 µM): 0.327
relative viability ([2]; first compound 0.2 µM): 0.179
relative viability ([3]; first compound 0.002 µM): 0.295
relative viability ([3]; first compound 0.006325 µM): 0.396
relative viability ([3]; first compound 0.02 µM): 0.174
relative viability ([3]; first compound 0.06325 µM): 0.531
relative viability ([3]; first compound 0.2 µM): 0.0744
relative viability ([4]; first compound 0.002 µM): 0.526
relative viability ([4]; first compound 0.006325 µM): 0.477
relative viability ([4]; first compound 0.02 µM): 0.276
relative viability ([4]; first compound 0.06325 µM): 0.11
relative viability ([4]; first compound 0.2 µM): 0.0708
relative viability ([5]; first compound 0.002 µM): 0.53
relative viability ([5]; first compound 0.006325 µM): 0.566
relative viability ([5]; first compound 0.02 µM): 0.469
relative viability ([5]; first compound 0.06325 µM): 0.367
relative viability ([5]; first compound 0.2 µM): 0.358
relative viability ([6]; first compound 0.002 µM): 0.593
relative viability ([6]; first compound 0.006325 µM): 0.653
relative viability ([6]; first compound 0.02 µM): 0.199
relative viability ([6]; first compound 0.06325 µM): 0.129
relative viability ([6]; first compound 0.2 µM): 0.106
relative viability ([7]; first compound 0.002 µM): 0.592
relative viability ([7]; first compound 0.006325 µM): 0.608
relative viability ([7]; first compound 0.02 µM): 0.403
relative viability ([7]; first compound 0.06325 µM): 0.136
relative viability ([7]; first compound 0.2 µM): 0.162
relative viability ([8]; first compound 0.002 µM): 0.26
relative viability ([8]; first compound 0.006325 µM): 0.257
relative viability ([8]; first compound 0.02 µM): 0.135
relative viability ([8]; first compound 0.06325 µM): 0.115
relative viability ([8]; first compound 0.2 µM): 0.106
relative viability ([9]; first compound 0.002 µM): 0.855
relative viability ([9]; first compound 0.006325 µM): 0.819
relative viability ([9]; first compound 0.02 µM): 0.583
relative viability ([9]; first compound 0.06325 µM): 0.0684
relative viability ([9]; first compound 0.2 µM): 0.0548
relative viability ([10]; first compound 0.002 µM): 0.274
relative viability ([10]; first compound 0.006325 µM): 0.243
relative viability ([10]; first compound 0.02 µM): 0.105
relative viability ([10]; first compound 0.06325 µM): 0.0887
relative viability ([10]; first compound 0.2 µM): 0.0954
relative viability ([11]; first compound 0.002 µM): 0.448
relative viability ([11]; first compound 0.006325 µM): 0.511
relative viability ([11]; first compound 0.02 µM): 0.354
relative viability ([11]; first compound 0.06325 µM): 0.51
relative viability ([11]; first compound 0.2 µM): 0.28
relative viability ([12]; first compound 0.002 µM): 0.908
relative viability ([12]; first compound 0.006325 µM): 0.776
relative viability ([12]; first compound 0.02 µM): 0.663
relative viability ([12]; first compound 0.06325 µM): 0.2
relative viability ([12]; first compound 0.2 µM): 0.157
relative viability ([13]; first compound 0.002 µM): 0.304
relative viability ([13]; first compound 0.006325 µM): 0.313
relative viability ([13]; first compound 0.02 µM): 0.223
relative viability ([13]; first compound 0.06325 µM): 0.165
relative viability ([13]; first compound 0.2 µM): 0.155
relative viability ([14]; first compound 0.002 µM): 0.496
relative viability ([14]; first compound 0.006325 µM): 0.373
relative viability ([14]; first compound 0.02 µM): 0.122
relative viability ([14]; first compound 0.06325 µM): 0.168
relative viability ([14]; first compound 0.2 µM): 0.108
relative viability ([15]; first compound 0.002 µM): 0.475
relative viability ([15]; first compound 0.006325 µM): 0.486
relative viability ([15]; first compound 0.02 µM): 0.374
relative viability ([15]; first compound 0.06325 µM): 0.134
relative viability ([15]; first compound 0.2 µM): 0.157
relative viability ([16]; first compound 0.002 µM): 0.479
relative viability ([16]; first compound 0.006325 µM): 0.513
relative viability ([16]; first compound 0.02 µM): 0.425
relative viability ([16]; first compound 0.06325 µM): 0.104
relative viability ([16]; first compound 0.2 µM): 0.0836
relative viability ([17]; first compound 0.002 µM): 1.09
relative viability ([17]; first compound 0.006325 µM): 0.851
relative viability ([17]; first compound 0.02 µM): 0.477
relative viability ([17]; first compound 0.06325 µM): 0.209
relative viability ([17]; first compound 0.2 µM): 0.127
relative viability ([18]; first compound 0.002 µM): 0.427
relative viability ([18]; first compound 0.006325 µM): 0.399
relative viability ([18]; first compound 0.02 µM): 0.264
relative viability ([18]; first compound 0.06325 µM): 0.123
relative viability ([18]; first compound 0.2 µM): 0.166
relative viability ([19]; first compound 0.002 µM): 0.48
relative viability ([19]; first compound 0.006325 µM): 0.441
relative viability ([19]; first compound 0.02 µM): 0.223
relative viability ([19]; first compound 0.06325 µM): 0.117
relative viability ([19]; first compound 0.2 µM): 0.111
relative viability ([20]; first compound 0.002 µM): 0.756
relative viability ([20]; first compound 0.006325 µM): 0.726
relative viability ([20]; first compound 0.02 µM): 0.626
relative viability ([20]; first compound 0.06325 µM): 0.578
relative viability ([20]; first compound 0.2 µM): 0.286
relative viability ([21]; first compound 0.002 µM): 0.508
relative viability ([21]; first compound 0.006325 µM): 0.619
relative viability ([21]; first compound 0.02 µM): 0.428
relative viability ([21]; first compound 0.06325 µM): 0.145
relative viability ([21]; first compound 0.2 µM): 0.105
relative viability ([22]; first compound 0.002 µM): 0.43
relative viability ([22]; first compound 0.006325 µM): 0.764
relative viability ([22]; first compound 0.02 µM): 0.261
relative viability ([22]; first compound 0.06325 µM): 0.603
relative viability ([22]; first compound 0.2 µM): 0.185
